Test results from US20260042755A1, “GPR6 INVERSE AGONISTS” (MapLight Therapeutics, Inc., priority 2022, published 2026).

Columns and labels:
GPR6 = target: T1, GPR6 (Homo sapiens, UniProt P46095); assay: GPR6 antagonist functional cAMP assay (LANCE Ultra cAMP TR-FRET, CHO cells stably expressing GPR6); assay type: cell-based
T1 construct: expressed in transfected cells; host or cells: CHO cells
Summary of the method: (§1)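 Cells in Krebs-Ringer buffer with 0.1% BSA and 150 μM Ro 20-1724 PDE inhibitor were exposed to compounds for 45 min at 37 °C (0.1% DMSO). cAMP was read by TR-FRET at 665 nm; IC50s came from 4-parameter fits normalized to DMSO and reference compound.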

GPR3 = target: T2, GPR3 (Homo sapiens, UniProt P46089); assay: GPR3 antagonist functional cAMP assay (LANCE Ultra cAMP TR-FRET, CHO cells stably expressing GPR3); assay type: cell-based
T2 construct: expressed in transfected cells; host or cells: CHO cells
Summary of the method: as §1

[1] = CHO cells stably expressing GPR6, cAMP assay
[2] = CHO cells stably expressing GPR3, cAMP assay
[3] = CHO cells stably expressing GPR6, cAMP assay (Example 24)
[4] = CHO cells stably expressing GPR3, cAMP assay (Example 24)
[5] = procedure as described in Example 24

T2 sequence (P46089 whole entry, species assumed): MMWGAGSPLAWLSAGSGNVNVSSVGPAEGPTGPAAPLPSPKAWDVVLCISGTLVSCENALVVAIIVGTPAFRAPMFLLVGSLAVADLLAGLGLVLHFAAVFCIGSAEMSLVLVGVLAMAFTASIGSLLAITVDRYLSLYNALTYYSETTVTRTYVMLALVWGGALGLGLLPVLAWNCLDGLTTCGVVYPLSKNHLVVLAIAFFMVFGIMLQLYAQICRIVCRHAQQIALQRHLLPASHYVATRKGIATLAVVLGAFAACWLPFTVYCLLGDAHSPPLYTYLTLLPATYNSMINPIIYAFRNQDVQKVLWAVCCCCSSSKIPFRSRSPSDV
T1 sequence (P46095 whole entry): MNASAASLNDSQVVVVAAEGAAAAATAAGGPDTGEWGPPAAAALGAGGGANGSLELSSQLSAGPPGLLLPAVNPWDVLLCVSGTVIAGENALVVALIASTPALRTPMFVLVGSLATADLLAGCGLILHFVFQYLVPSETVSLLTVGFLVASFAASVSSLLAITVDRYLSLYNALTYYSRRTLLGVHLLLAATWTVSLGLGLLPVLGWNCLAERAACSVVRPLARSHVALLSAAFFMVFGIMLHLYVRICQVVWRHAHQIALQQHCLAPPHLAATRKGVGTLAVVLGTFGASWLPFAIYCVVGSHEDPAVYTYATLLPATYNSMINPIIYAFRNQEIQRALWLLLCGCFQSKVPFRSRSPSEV

IC50 (GPR6; procedure of Example 24)	IC50 (GPR3; procedure of Example 24)	IC50 (GPR6; [3])	IC50 (GPR3; [4])	Structure (SMILES)	also measured
1000 to 30000 nM	1000 to 30000 nM			COc1ccc(C(=O)N2CCN(c3nc4c(nc3-c3cnn(C)c3)CN(C(C)=O)CC4)CC2)nc1 [Compound 284, 1-{2-[4-(5-methoxypyridine-2-carbonyl)piperazin-1-yl]-3-(1-methyl-1H-pyrazol-4-yl)-5H,6H,7H,8H-pyrido[3,4-b]pyrazin-6-yl}ethan-1-one]	
				CC(=O)N1CCc2nc(N3CCN(Cc4cc(Cl)ccc4F)CC3)c(-c3ccc(F)c(N)n3)nc2C1 [Compound 582, 1-[3-(6-amino-5-fluoro-2-pyridyl)-2-{4-[(5-chloro-2-fluorophenyl)methyl]-1-piperazinyl}-5,6,7,8-tetrahydro-1,4,6-triaza-6-naphthyl]-1-ethanone]	IC50 (GPR6; [1]): < 100 nM; IC50 (GPR3; [2]): 1000 to 30000 nM
		1000 to 30000 nM	1000 to 30000 nM	CCOc1cncc(-c2nc3c(nc2N2CCC(Oc4ccc(F)cc4F)CC2)CCN(C(C)=O)C3)n1 [Compound 233, 1-{2-[4-(2,4-difluorophenoxy)piperidin-1-yl]-3-(6-ethoxypyrazin-2-yl)-5H,6H,7H,8H-pyrido[3,4-b]pyrazin-6-yl}ethan-1-one]	
		≥ 30000 nM	1000 to 30000 nM	CC(=O)N1CCc2nc(N3CC=CC3)c(-c3cnn(C)c3)nc2C1 [Compound 451, 1-[2-(2,5-dihydro-1H-pyrrol-1-yl)-3-(1-methyl-1H-pyrazol-4-yl)-5H,6H,7H,8H-pyrido[3,4-b]pyrazin-6-yl]ethan-1-one]	
1000 to 30000 nM	1000 to 30000 nM			CCOc1ccc(CN2CCN(c3nc4c(nc3-c3cnn(C)c3)CN(C(C)=O)CC4)CC2)c(F)c1 [Compound 362, 1-(2-{4-[(4-ethoxy-2-fluorophenyl)methyl]piperazin-1-yl}-3-(1-methyl-1H-pyrazol-4-yl)-5H,6H,7H,8H-pyrido[3,4-b]pyrazin-6-yl)ethan-1-one]	
		1000 to 30000 nM	1000 to 30000 nM	Cn1cc(-c2nc3cnccc3nc2N2CCN(CC3CCC(F)(F)CC3)CC2)cn1 [Compound 213, 1-[(4,4-difluorocyclohexyl)methyl]-4-[3-(1-methyl-1H-pyrazol-4-yl)pyrido[3,4-b]pyrazin-2-yl]piperazine]	
		100 to 1000 nM	1000 to 30000 nM	Cn1cc(-c2nc3cnc(C(=O)C(C)(C)O)cc3nc2N2CCC(Oc3ccc(F)cc3F)CC2)cn1 [Compound 413, 1-(2-(4-(2,4-difluorophenoxy)piperidin-1-yl)-3-(1-methyl-1H-pyrazol-4-yl)pyrido[3,4-b]pyrazin-7-yl)-2-hydroxy-2-methylpropan-1-one]	
				CC(=O)N1CCc2nc(N3CCC(Oc4ccc(F)cc4F)CC3)c(-c3cnsc3)nc2C1 [Compound 8, 1-{2-[4-(2,4-difluorophenoxy)piperidin-1-yl]-3-(1,2-thiazol-4-yl)-5H,6H,7H,8H-pyrido[3,4-b]pyrazin-6-yl}ethan-1-one]	IC50 (GPR6; [5]): 100 to 1000 nM; IC50 (GPR3; [5]): 1000 to 30000 nM
< 100 nM	100 to 1000 nM			CC(C)(O)[C@@H](O)c1cc2nc(-c3cnn(C(F)F)c3)c(N3CCN(Cc4ccccc4F)CC3)nc2cn1 (single isomer, unassigned) [Compound 686]	
				CC(=O)N1CCc2nc(N3CCN(Cc4ccc(F)cc4F)CC3)c(-c3ccc(F)c(N)n3)nc2C1 [Compound 609, 1-[3-(6-amino-5-fluoro-2-pyridyl)-2-{4-[(2,4-difluorophenyl)methyl]-1-piperazinyl}-5,6,7,8-tetrahydro-1,4,6-triaza-6-naphthyl]-1-ethanone]	IC50 (GPR6; [1]): 100 to 1000 nM; IC50 (GPR3; [2]): 100 to 1000 nM
100 to 1000 nM	1000 to 30000 nM			CC(=O)N1CCc2nc(N3CCC(Oc4ccc(F)cc4F)CC3)c(-c3cnn([C@@H](C)C#N)c3)nc2C1 (single isomer, unassigned) [Compound 271]	
		100 to 1000 nM	1000 to 30000 nM	COc1ccc(OC2CCN(c3nc4c(nc3-c3cnn(C)c3)CN(C(C)=O)CC4)CC2)c(F)c1 [Compound 452, 1-{2-[4-(2-fluoro-4-methoxyphenoxy)piperidin-1-yl]-3-(1-methyl-1H-pyrazol-4-yl)-5H,6H,7H,8H-pyrido[3,4-b]pyrazin-6-yl}ethan-1-one]	
< 100 nM	1000 to 30000 nM			CCn1cc(-c2nc3c(nc2N2CCC(Oc4ccc(F)cc4F)CC2)CCN(C(=O)OC)C3)cn1 [Compound 273, methyl 2-[4-(2,4-difluorophenoxy)piperidin-1-yl]-3-(1-ethyl-1H-pyrazol-4-yl)-5H,6H,7H,8H-pyrido[3,4-b]pyrazine-6-carboxylate]	
				CCOc1ccc(OC2CCN(c3nc4c(nc3-c3cnn(C)c3)CN(C(C)=O)CC4)CC2)c(F)c1 [Compound 504, 1-{2-[4-(4-ethoxy-2-fluorophenoxy)-1-piperidyl]-3-(1-methyl-4-pyrazolyl)-5,6,7,8-tetrahydro-1,4,6-triaza-6-naphthyl}-1-ethanone]	IC50 (GPR6; [1]): 100 to 1000 nM; IC50 (GPR3; [2]): 1000 to 30000 nM
100 to 1000 nM	100 to 1000 nM			CC(C)(O)C(=O)c1cc2nc(-c3cnn(C(F)F)c3)c(N3CCN(Cc4ccc(F)cc4F)CC3)nc2cn1 [Compound 620, 1-{2-[1-(difluoromethyl)-4-pyrazolyl]-3-{4-[(2,4-difluorophenyl)methyl]-1-piperazinyl}-1,4,6-triaza-7-naphthyl}-2-hydroxy-2-methyl-1-propanone]	
100 to 1000 nM	1000 to 30000 nM			CC(C)(O)[C@@H](O)c1cc2nc(N3CCC(=Cc4ccc(F)cc4F)CC3)c(-c3cnn(C4CC4)c3)nc2cn1 (single isomer, unassigned) [Compound 769]	
1000 to 30000 nM	1000 to 30000 nM			CC(=O)N1CCc2nc(N3CCC(C(O)c4ccc(F)cc4F)CC3)c(-c3ccc(F)c(N)n3)nc2C1 (stereo not shown) [Compound 703, 1-[3-(6-amino-5-fluoro-2-pyridyl)-2-{4-[(2,4-difluorophenyl)hydroxymethyl]-1-piperidyl}-5,6,7,8-tetrahydro-1,4,6-triaza-6-naphthyl]-1-ethanone]	
				CC(C)(O)C(O)c1cc2nc(-c3cnn(C(F)F)c3)c(N3CCC(Oc4ccc(F)cc4F)CC3)nc2cn1 (single isomer, unassigned) [Compound 584]	IC50 (GPR6; [1]): < 100 nM; IC50 (GPR3; [2]): 1000 to 30000 nM
1000 to 30000 nM	1000 to 30000 nM			Cn1cc(-c2nc3c(O)nccc3nc2N2CCC(Oc3ccc(F)cc3F)CC2)cn1 [Compound 376, 2-[4-(2,4-difluorophenoxy)piperidin-1-yl]-3-(1-methyl-1H-pyrazol-4-yl)pyrido[3,4-b]pyrazin-5-ol]	
		100 to 1000 nM	1000 to 30000 nM	Fc1ccc(OC2CCN(c3nc4cnccc4nc3-c3cn[nH]c3)CC2)c(F)c1 [Compound 100, 4-(2,4-difluorophenoxy)-1-[2-(1H-pyrazol-4-yl)pyrido[3,4-b]pyrazin-3-yl]piperidine]	
		100 to 1000 nM	1000 to 30000 nM	CC(=O)N1CCc2nc(N3CCC(Oc4ccccc4F)CC3)c(-c3cnn(C)c3)nc2C1 [Compound 420, 1-{2-[4-(2-fluorophenoxy)piperidin-1-yl]-3-(1-methyl-1H-pyrazol-4-yl)-5H,6H,7H,8H-pyrido[3,4-b]pyrazin-6-yl}ethan-1-one]	
		100 to 1000 nM	1000 to 30000 nM	Cn1cc(-c2nc3cnc(CCO)cc3nc2N2CCC(Oc3ccc(F)cc3F)CC2)cn1 [Compound 468, 2-{2-[4-(2,4-difluorophenoxy)piperidin-1-yl]-3-(1-methyl-1H-pyrazol-4-yl)pyrido[3,4-b]pyrazin-7-yl}ethan-1-ol]	
100 to 1000 nM	100 to 1000 nM			COC[C@@](C)(O)c1cc2nc(-c3cnn(C)c3)c(N3CCC(Oc4ccc(F)cc4F)CC3)nc2cn1 (single isomer, unassigned) [Compound 688]	
100 to 1000 nM	1000 to 30000 nM			CCn1cc(-c2nc3cnc(C)cc3nc2N2CCC(Oc3ccc(F)cc3F)CC2)cn1 [Compound 313, 4-(2,4-difluorophenoxy)-1-[3-(1-ethyl-1H-pyrazol-4-yl)-7-methylpyrido[3,4-b]pyrazin-2-yl]piperidine]	
		1000 to 30000 nM	1000 to 30000 nM	COc1ccc(OC2CCN(c3nc4c(nc3-c3cnn(C)c3)CN(C(C)=O)CC4)CC2)c(OC)c1 [Compound 426, 1-{2-[4-(2,4-dimethoxyphenoxy)piperidin-1-yl]-3-(1-methyl-1H-pyrazol-4-yl)-5H,6H,7H,8H-pyrido[3,4-b]pyrazin-6-yl}ethan-1-one]	
100 to 1000 nM	1000 to 30000 nM			CCn1cc(-c2nc3c(nc2N2CCC(Oc4ccc(F)cc4F)CC2)CCN(C(=O)C2COC2)C3)cn1 [Compound 366, 4-(2,4-difluorophenoxy)-1-[3-(1-ethyl-1H-pyrazol-4-yl)-6-(oxetane-3-carbonyl)-5H,6H,7H,8H-pyrido[3,4-b]pyrazin-2-yl]piperidine]	
1000 to 30000 nM	1000 to 30000 nM			CC(=O)N1CCc2nc(N3CCC(=C(C)c4ccc(F)cc4F)CC3)c(-c3cnn(C)c3)nc2C1 [Compound 718, 1-(2-{4-[1-(2,4-difluorophenyl)ethylidene]-1-piperidyl}-3-(1-methyl-4-pyrazolyl)-5,6,7,8-tetrahydro-1,4,6-triaza-6-naphthyl)-1-ethanone]	
100 to 1000 nM	1000 to 30000 nM			CC(C)(O)CNc1cc2nc(-c3cnn(CF)c3)c(N3CCN(Cc4ccc(F)cc4F)CC3)nc2cn1 [Compound 757, 1-(3-{4-[(2,4-difluorophenyl)methyl]-1-piperazinyl}-2-[1-(fluoromethyl)-4-pyrazolyl]-1,4,6-triaza-7-naphthylamino)-2-methyl-2-propanol]	
1000 to 30000 nM	≥ 30000 nM			CC(=O)N1CCc2nc(N3CCN(C(c4ccc(F)cc4F)C(F)(F)F)CC3)c(-c3cnn(C)c3)nc2C1 (stereo not shown) [Compound 731, 1-(2-{4-[1-(2,4-difluorophenyl)-2,2,2-trifluoroethyl]-1-piperazinyl}-3-(1-methyl-4-pyrazolyl)-5,6,7,8-tetrahydro-1,4,6-triaza-6-naphthyl)-1-ethanone]	
